# Laboratory results published in PMC2854724, “In Vitro Screening of Environmental Chemicals for Targeted Testing Prioritization: The ToxCast Project” (Environmental Health Perspectives, 2009).
# What was measured:
# [1] = tested on: HepG2 (hepatocellular carcinoma cell line G2); assay: HepG2 high-content cell-imaging assays (mitochondrial poison); assay type: cell-based, human
# Text: (§1) There are 467 cell-free or cell-based assays.
# PPARα = target: T1, PPARα (Homo sapiens, UniProt Q07869); assay: PPARα assays
# T1 sequence (Q07869 1-468): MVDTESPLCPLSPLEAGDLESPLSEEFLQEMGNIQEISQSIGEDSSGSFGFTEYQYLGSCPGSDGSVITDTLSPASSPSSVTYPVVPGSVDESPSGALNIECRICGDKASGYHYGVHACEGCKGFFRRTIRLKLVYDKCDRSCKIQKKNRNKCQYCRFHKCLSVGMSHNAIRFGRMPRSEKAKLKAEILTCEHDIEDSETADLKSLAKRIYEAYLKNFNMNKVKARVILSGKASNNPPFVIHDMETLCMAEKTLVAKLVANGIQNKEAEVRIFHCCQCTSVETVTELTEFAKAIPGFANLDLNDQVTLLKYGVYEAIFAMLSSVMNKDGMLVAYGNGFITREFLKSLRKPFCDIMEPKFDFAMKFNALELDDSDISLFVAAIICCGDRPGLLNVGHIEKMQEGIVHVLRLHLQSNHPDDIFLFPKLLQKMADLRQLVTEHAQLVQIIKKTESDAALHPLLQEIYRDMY
# Text: as §1
# MMP1 = assay: Cell-based assay, perturbation of MMP1 levels
# Text: as §1
# MMP13 = MMP13 (Homo sapiens, UniProt P45452); assay: Cell-free HTS assay, direct interaction with MMP13; assay type: biochemical
# Text: as §1
# MMP9 = assay: Cell-based assay, perturbation of MMP9 levels
# Text: as §1
# PPARγ = target: T2, PPARγ (Homo sapiens, UniProt P37231); assay: PPARγ assays
# T2 sequence (P37231 1-505): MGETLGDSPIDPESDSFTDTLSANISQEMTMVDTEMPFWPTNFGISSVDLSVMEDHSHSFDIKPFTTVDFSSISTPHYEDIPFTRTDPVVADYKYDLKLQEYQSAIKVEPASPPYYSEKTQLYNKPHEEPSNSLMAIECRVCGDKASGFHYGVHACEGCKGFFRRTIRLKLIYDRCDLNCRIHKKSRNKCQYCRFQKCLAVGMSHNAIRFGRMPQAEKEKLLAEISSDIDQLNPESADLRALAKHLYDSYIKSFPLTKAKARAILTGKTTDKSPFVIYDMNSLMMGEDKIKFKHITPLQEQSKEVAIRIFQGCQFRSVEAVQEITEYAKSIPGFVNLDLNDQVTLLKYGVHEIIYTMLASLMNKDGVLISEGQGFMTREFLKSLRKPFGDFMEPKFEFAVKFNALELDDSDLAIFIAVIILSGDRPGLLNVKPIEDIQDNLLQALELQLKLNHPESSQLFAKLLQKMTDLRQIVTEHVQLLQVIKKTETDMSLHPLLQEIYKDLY
# Text: We screened the chemical library using nine separate assay technologies, with assays run in concentration–response format and in some cases with multiple time points. Assays encompass both direct, primary interactions between chemicals and molecular targets and downstream cellular events such as gene expression. […] There are 467 cell-free or cell-based assays. Assay sets include biochemical HTS and cell-based HTS assays measuring direct molecular interactions with specific protein targets; high-content cell-imaging assays measuring complex cellular phenotypes; a multiplexed gene expression assay for xenobiotic metabolizing enzymes and transporters in human primary hepatocytes; multiplexed transcription factor reporter assays; multiplexed biological activity profiling assays measuring biomarkers in a variety of human primary cell cocultures; assays measuring effects of phase I and II xenobiotic metabolizing enzyme (XMEs) on cytotoxicity; an HTS genotoxicity assay; and a real-time cellular impedance assay that measures the kinetics of cell growth and changes in morphology. For all cell-based assays, time points were selected on the basis of studies conducted during the assay development and were considered optimal for the end point being evaluated.
# A total of 624 in vitro assay end points (including multiple time points) were measured for each chemical, generating > 200,000 concentration responses. […] In all cases we report a characteristic micromolar concentration for each chemical–assay combination.
# [2] = target: matrix metalloproteinase (MMP)3 (Homo sapiens, UniProt P08254); assay: Cell-free HTS assay, direct interaction with MMP3; assay type: biochemical
# Chain of matrix metalloproteinase (MMP)3 (P08254 100-477): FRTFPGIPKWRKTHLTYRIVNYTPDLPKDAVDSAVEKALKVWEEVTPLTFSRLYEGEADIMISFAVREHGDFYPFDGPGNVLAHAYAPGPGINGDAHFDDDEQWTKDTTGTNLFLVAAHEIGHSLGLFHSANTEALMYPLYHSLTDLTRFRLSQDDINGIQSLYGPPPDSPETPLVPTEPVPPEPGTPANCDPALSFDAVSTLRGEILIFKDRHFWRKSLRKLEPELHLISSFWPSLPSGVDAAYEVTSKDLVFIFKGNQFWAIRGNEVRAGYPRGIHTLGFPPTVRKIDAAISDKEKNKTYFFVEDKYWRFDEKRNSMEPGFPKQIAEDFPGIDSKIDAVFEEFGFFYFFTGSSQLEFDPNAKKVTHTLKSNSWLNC
# Text: as §1
Compound,Mitochondrial poison activity in HepG2 high-content cell imaging [1],Activity in PPARα assays (PPARα),Activity in PPARγ assays (PPARγ),further results
CO/C=C(/C(=O)OC)c1ccccc1Oc1cc(Oc2ccccc2C#N)ncn1 [Azoxystrobin],active mitochondrial poisons,–,–,–
"O=C(O)C(F)(F)C(F)(F)C(F)(F)C(F)(F)C(F)(F)C(F)(F)C(F)(F)F [PFOA, perfluorooctanoic acid]",–,active,–,–
"O=S(=O)(O)C(F)(F)C(F)(F)C(F)(F)C(F)(F)C(F)(F)C(F)(F)C(F)(F)C(F)(F)F [PFOS, perfluorooctane sulfonic acid]",–,all but PFOS were also active,positive,AC50 (MMP1): 13.3 µM; AC50 (MMP13): 32.4 µM; AC50 (MMP9): 4.4 µM; AC50 [2]: 14.6 µM
CCCCC(CC)COC(=O)c1ccccc1C(=O)OCC(CC)CCCC (centres unmarked) [diethylhexyl phthalate],–,active,positive,–
CO/N=C(/C1=NOCCO1)c1ccccc1Oc1ncnc(Oc2ccccc2Cl)c1F [fluoxastrobin],active mitochondrial poisons,–,–,–
CCOC(=O)C(C)OC(=O)c1cc(Oc2ccc(C(F)(F)F)cc2Cl)ccc1[N+](=O)[O-] (centres unmarked) [lactofen],–,active,positive,–
COC(=O)N(OC)c1ccccc1COc1ccn(-c2ccc(Cl)cc2)n1 [pyraclostrobin],active mitochondrial poisons,–,–,–
